Assay results taken from patent US20140286945A1, “ENZYME INHIBITOR FOR CANCER TREATMENT” (The Curators of the University of Missouri, priority 2011, published 2014).

How the values were obtained:
Mec-2 cells [1] = assay: MTT assay of cell viability/proliferation in Mec-2 cells; assay type: cell-based; conditions: for effect on cell proliferation, agents alone: 72 hours, BIBB515 at 10 μm (10^−5), Fludarabine 10 μM (FIG. 4)
Wac-3 cells = assay: MTT assay of cell viability in Wac-3 cells; assay type: cell-based
Raji cells = assay: Raji (Burkitt lymphoma) cell viability at 72 hours; assay type: cell-based
Procedure: 1. Inhibition on cell viability of Raji after treatments with BIBB515 alone and in combination with Fludarabine. Burkitt lymphoma is a highly aggressive lymphoma, and Raji cells are sensitive to Fludarabine treatment at 10 μM concentration. […] Fludarabine was used at 5 μM concentration.
2. Inhibition on cell viability of Raji after treatments with Terbinafine alone and in combination with Fludarabine. […] The preferred cholesterol concentration range may also various between different cancer types.

dog lymphoma cells = assay: Dog lymphoma cell viability; assay type: cell-based; conditions: BIBB515 10 μM
Source text: Spontaneously occurring lymphoma in the dog has many of the same histopathological, molecular, and clinical features as non-Hodgkin's lymphoma (NHL) in humans. Most of the lymphoma subtypes recognized in humans have histopathologically identical counterparts in the dog and recent investigations show similar molecular characteristics in the two species. Likewise, spontaneous lymphoma in the dog has a similar clinical presentation, response to chemotherapy, and clinical progression compared to NHL in human patients. […] A canine lymphoma cell line, OSW, was established from the thoracic effusion of a dog with relapsed peripheral T-cell lymphoma. […] See, e.g., U.S. Pat. No. 7,897,150 and Kisseberth, W. C., et al., “A novel canine lymphoma cell line: a translational and comparative model for lymphoma research,” Leuk Res, 2007 31(12): p. 1709-20.

CD-54 = assay: Flow-cytometric analysis of CD-54 in Mec-2 cells; assay type: cell-based; conditions: flow cytometry, Fludarabine 10 μM, compared to control (FIG. 2)
Mec-2 cells [2] = assay: Membrane lipid content of Mec-2 cells by mass spectrometry; assay type: cell-based; conditions: 24 hrs, 10^−5 M; for some diacyl phosphatidylcholine species: versus DMSO controls; for lysophosphatidylcholines (LPC): versus DMSO controls (FIG. 19); for levels of phosphatidylcholines (PC): versus DMSO controls (FIG. 20); for levels of glycosphingolipids/dihydroglycosphingolipids: versus DMSO controls (FIG. 21); for levels of ether-linked phosphatidylcholines: versus DMSO controls (FIG. 22)
Procedure: Lipids were extracted by the following chloroform and methanol method. To 0.8 parts cells in aqueous solution, 1 part chloroform and 2 parts methanol was added and shaken well, then another 1 part chloroform and 1 part water added and shaken. The mixture was then centrifuged at low speeds for 5-10 min. and the lower layer removed. One part chloroform was added 3 times, shaken and centrifuged to again remove the lower layer. The layers were then combined, washed with KCl and then water. The extracted lipids from Mec-2 cells were vacuum dried after 24 hrs. of treatment with BIBB(10^−5 M) and YM(10^−5 M). Controls were treated with DMSO.
Samples were analyzed by mass spectrometry by the Kansas Lipidomics Research Center (KLRC) and identified and quantified by comparison against standard molecular weights of lipids. Each sample was loaded, vaporized, and ionized by electron beam; ions electromagnetically separated according to mass-to-charge ratio (m/z) were detected, and the ion signal processed into mass spectra.
Compounds were identified based on m/z of the intact ion and the mass of one fragment formed in the mass spectrometer: typically, for polar lipids, a head group fragment; for sphingolipids, a fragment characteristic of the long-chain base or sugar(s); for neutral lipids and for specialized analyses, often an acyl fragment. Quantities were reported as normalized signal/(tissue metric nanomole/3 million cells) against internal standards added in known amounts, usually with an adjustment for variation in response with m/z. Thus, quantities reported as normalized signal/(tissue metric) for diacyl or monoacyl phospholipids can be considered to be equal to nmol/(tis sue metric).

patient CLL cells = assay: Patient CLL cell viability; assay type: cell-based
Procedure: 1. Inhibition effect with BIBB515 alone and in combination with Fludarabine and Rituximab on patient cells. To assess the effect of treatment on cell viabilities, patient CLL cells were treated with BIBB515 alone and in combination with Fludarabine and Rituximab. Untreated CLL patient cell samples and samples of patients exposed to Fludarabine were used. The treatment was done 24 hrs after the cells plated in T25 flasks.

MCF-7 cells = assay: MCF-7 cell proliferation (MTT); assay type: cell-based; conditions: for response of MCF-7 cells to treatment: at low doses
Procedure: Refer to FIG. 11, which compares MCF-7 cell proliferation data among the treatments of BIBB515, Tamoxifen, Anastraozole, and various combinations thereof. During the experiments, the MCF-7 cells were treated with charcoal-stripped serum prior to treatment and grown with treatment repeated every 72 hrs. The cells were grown for 6 days, on day 7 the cell proliferation was determined by adding MTT and read at 570 nm according to the manufactures instructions. […] Thus, inhibiting the cholesterol pathway can inhibit the estrogen induced cell proliferation in MCF-7 cells.

Mec-2 cells [3] = conditions: 10 µM
[4] = rat, hamster, squirrel monkey and minipig models; due to inhibition of LDL production; cited from earlier work
Mec-2 cells [5] = assay: Confocal microscopic analysis of glycosphingolipid density in Mec-2 cells; assay type: cell-based; conditions: confocal microscopy, relative to control, TAK-475 at 10 μM, data not shown
Procedure: Mec-2 cells were treated with BIBB515, YM-53601, or 10 μM of TAK-475 and imaged by confocal miscrscope. […] This would explain why rituximab is of limited or no efficacy in Mec-2 and Wac-3 cells, and provides a rationale for the efficacy of combination treatment with rituximab and a cholesterol biosynthetic pathway inhibitor.

CD-20 = assay: Flow-cytometric analysis of CD-20 in Mec-2 cells; assay type: cell-based; conditions: flow cytometry, Fludarabine 10 μM, compared to control (FIG. 2)
Mec-2 cells [6] = assay: Flow cytometry of glycosphingolipids in Mec-2 cells; assay type: cell-based; conditions: data not shown
[7] = tested on: multiple myeloma cell line U226B1; assay: Multiple myeloma cell line proliferation; assay type: cell-based; conditions: Ro-48-8071 alone (FIG. 12)
[8] = 10 μM YM-53601, 10 μg/mL alemtuzumab

Rituximab: an antiCD-20 monoclonal antibody that is in use in clinics
effect on cell proliferation, agents alone (Mec-2 cells [1]): resistant
effect on cellular proliferation (Wac-3 cells; 10 μM TAK-475, 5 μM Fludarabine, 10 μg/mL Rituximab (FIG. 14)): wholly ineffective

CN(C/C=C/C#CC(C)(C)C)Cc1cccc2ccccc12 [Terbinafine, terbinafine]
Raji cell proliferation (Raji cells; Terbinafine study (FIG. 10)): reduced
cell proliferation (MTT assay) (Mec-2 cells [1]; Terbinafine 60 μM, controls 0.5 (FIG. 5)): 0.16

O=C(c1ccc(Cl)cc1)N1CCC(=Cc2ccc(C3=NCCO3)cc2)CC1 [BIBB515]
Raji cell proliferation (Raji cells; BIBB515 various concentrations, even at 10^−7, Fludarabine 5 μM (FIG. 9)): reduced
effect on cell proliferation, agents alone (Mec-2 cells [1]): able to inhibit cell proliferation
cell viability (dog lymphoma cells; Chlorambucil 100 nM (FIG. 16)): reducing the cell viability somewhat
cell viability (dog lymphoma cells; lomustine 100 nM (FIG. 15)): reducing the cell viability somewhat
sensitization of cells to Rituximab treatment (Wac-3 cells; BIBB515 study (FIG. 8)): sensitizes the Wac-3 cells to Rituximab treatment
CD-54 cell surface expression (CD-54): maintained at the similar level
some diacyl phosphatidylcholine species (Mec-2 cells [2]): reduce
lysophosphatidylcholines (LPC) (Mec-2 cells [2]): reduce
levels of phosphatidylcholines (PC) (Mec-2 cells [2]): increase
levels of glycosphingolipids/dihydroglycosphingolipids (Mec-2 cells [2]): increase
levels of ether-linked phosphatidylcholines (Mec-2 cells [2]): increase
effect on cell viability (patient CLL cells; BIBB515 study): reducing the cell viability moderately
sensitization of MCF-7 cells (MCF-7 cells; FIG. 11): sensitized
proliferation of cells with estrogen (MCF-7 cells; MCF-7, charcoal-stripped serum, 6 days, MTT on day 7 (FIG. 11)): blocked
cell death in MCF-7 cells (MCF-7 cells; relatively low doses of Tamoxifen or Anastrazole): induces cell death
viability (Mec-2 cells [3]): 65%
lipid lowering [4]: lower lipids
glycosphingolipids and thus lipid raft density (Mec-2 cells [5]): increase
CD-20 cell surface expression (CD-20): increased CD-20 cell surface expression

Nc1nc(F)nc2c1ncn2[C@@H]1O[C@H](CO)[C@@H](O)[C@@H]1O [Fludarabine]
viability (Mec-2 cells [3]): 82%

CC(C)(C#N)c1cc(Cn2cncn2)cc(C(C)(C)C#N)c1 [Anastrazole]
response of MCF-7 cells to treatment (MCF-7 cells): resistant

F/C(COc1ccc2c(c1)[nH]c1ccccc12)=C1/CN2CCC1CC2 [YM-53601]
effect on cell proliferation (Mec-2 cells [1]; YM-53601 100 nM (FIG. 7)): reduces Mec-2 cell proliferation moderately
effect on cellular proliferation (Wac-3 cells; [8]): effective at preventing cellular proliferation
growth of cell population (Wac-3 cells; 10 μM YM-53601, 10 μg/mL alemtuzumab, control population more than tripled): did not achieve even a doubling
some diacyl phosphatidylcholine species (Mec-2 cells [2]): reduce
lysophosphatidylcholines (LPC) (Mec-2 cells [2]): reduce
levels of phosphatidylcholines (PC) (Mec-2 cells [2]): increase
levels of glycosphingolipids/dihydroglycosphingolipids (Mec-2 cells [2]): increase
levels of ether-linked phosphatidylcholines (Mec-2 cells [2]): increase
glycosphingolipids / lipid raft density by flow cytometry (Mec-2 cells [6]): increase was confirmed
glycosphingolipids and thus lipid raft density (Mec-2 cells [5]): increase

alemtuzumab: CD52-targeting monoclonal antibody
effect on cellular proliferation (Wac-3 cells; [8]): ineffective at the concentration tested

CC/C(=C(\c1ccccc1)c1ccc(OCCN(C)C)cc1)c1ccccc1 [Tamoxifen]
response of MCF-7 cells to treatment (MCF-7 cells): resistant

C=CCN(C)CCCCCCOc1ccc(C(=O)c2ccc(Br)cc2)c(F)c1 [Ro-48-8071]
concentration giving the highest inhibition (dose dependent sensitivity) (Mec-2 cells [1]; Ro-48-8071 alone (FIG. 6)): 30 µM
effect on cell proliferation (Mec-2 cells [1]; Ro-48-8071 study, Fludarabine 10 μM (FIG. 6)): inhibits Mec-2 cell proliferation significantly
cell proliferation [7]: provides reduction on cell proliferation
cell viability (patient CLL cells; Ro-48-8071 study, control over 80%): about 65%
lipid lowering [4]: lower lipids
